Test systems include ACHN renal; KM12 colon; SNB-75 CNS; HT29 colon; EKVX NSCLC; U251 CNS; UO-31 renal; COLO 205 colon; SK-MEL-28 melanoma; T-47D breast.
Holding throughout (experiment): growth of human tumour cells (NCI), 48 h

Several values for one entry are separate records, joined by “and”; a condition that tells them apart may be missing. Identical values can stand only once.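 Growth conditions: 96-well plates. Treatment: test compound, 48 hours, 5 concentrations. Analysis: linear interpolation between bracketing concentrations; unreached endpoints set to highest concentration. GI50 is the concentration that inhibits growth by half. TGI denotes the concentration required for complete inhibition of growth.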

For `Cc1c(N)nc(C(CC(N)=O)NCC(N)C(N)=O)nc1C(=O)NC(C(=O)NC(C)C(O)C(C)C(=O)NC(C(=O)NCCc1nc(-c2nc(C(=O)NCCCNC(C)c3ccccc3)cs2)cs1)C(C)O)C(OC1OC(CO)C(O)C(O)C1OC1OC(CO)C(O)C(OC(N)=O)C1O)c1cnc[nH]1` (stereo unspecified), the TGI is 0.189 µM and 1.48 µM in the assay with ACHN renal; 50 µM and > 100 µM in the assay on KM12 colon; 5.03 µM and 8.77 µM with SNB-75 CNS; 50 µM and > 100 µM with HT29 colon; 50 µM and > 100 µM in the assay on EKVX NSCLC; 24 µM and 56.6 µM with U251 CNS. In addition, the TGI is 50 µM and > 100 µM with COLO 205 colon; 50 µM with SK-MEL-28 melanoma; 50 µM and > 100 µM in the assay on T-47D breast. Besides, the GI50 in the assay with KM12 colon was 44.1 µM; in the assay with SNB-75 CNS, 1.5 µM; with EKVX NSCLC, > 100 µM; in the assay with U251 CNS, 2.32 µM; in the assay on UO-31 renal, 2.9 µM; with COLO 205 colon, 32.6 µM. For the same compound, the GI50 in the assay on T-47D breast is 23.8 µM.

Turning to `CC(=O)O[C@H]1C(=O)[C@@]2(C)[C@H]([C@H](OC(=O)c3ccccc3)[C@]3(O)C[C@H](OC(=O)[C@H](OC(=O)OC[C@H]4COC(C)(C)O4)[C@@H](NC(=O)c4ccccc4)c4ccccc4)C(C)=C1C3(C)C)[C@]1(OC(C)=O)CO[C@@H]1C[C@@H]2O`, the GI50 is 0.343 µM in the assay on ACHN renal; 0.00943 µM in the assay on KM12 colon; 0.00333 µM with SNB-75 CNS; 0.0059 µM in the assay with HT29 colon; 0.113 µM with EKVX NSCLC; 0.0288 µM in the assay with U251 CNS. The GI50 in the assay on UO-31 renal is 0.738 µM; in the assay on COLO 205 colon it was 0.0216 µM; in the assay on SK-MEL-28 melanoma it was > 33.3 µM; in the assay with T-47D breast, 0.0437 µM. The TGI was > 33.3 µM in the assay with ACHN renal; > 33.3 µM with KM12 colon; 0.0697 µM in the assay on SNB-75 CNS; > 33.3 µM with HT29 colon; > 33.3 µM in the assay on EKVX NSCLC; > 33.3 µM in the assay on U251 CNS. The TGI in the assay on UO-31 renal, in the assay with COLO 205 colon, in the assay on SK-MEL-28 melanoma and in the assay on T-47D breast was > 33.3 µM in each case.

In the case of `CC(=O)NC(CSC1=C2NC(=O)\C=C/C=C/C=C\C(C)C(O)CC(=O)/C(C)=C\CC(O)/C=C/C(C)C(O)C(C)C=C(C)C(=O)c3c(O)c(C)cc(c3C1=O)C2=O)C(=O)O` (stereo unspecified), the TGI with ACHN renal, in the assay with KM12 colon, in the assay on SNB-75 CNS, with HT29 colon, in the assay on EKVX NSCLC and with U251 CNS was > 100 µM throughout. Moreover, the TGI in the assay with UO-31 renal is > 100 µM; with COLO 205 colon it was 79.6 µM; in the assay with SK-MEL-28 melanoma, > 100 µM; with T-47D breast, > 100 µM.

For `Nc1nc2cc(CC[C@H]3C[C@@H](n4ccc5c(N)ncnc54)[C@H](O)[C@@H]3O)ccc2cc1Br`, the GI50 with ACHN renal is 12.3 µM; in the assay on KM12 colon, 11 µM; in the assay with SNB-75 CNS it was 4 µM; with HT29 colon it was 2.46 µM; in the assay on EKVX NSCLC, 4.22 µM; with U251 CNS, 13 µM. Further, the GI50 in the assay on UO-31 renal is 2.92 µM; in the assay on COLO 205 colon, 11.3 µM; in the assay on SK-MEL-28 melanoma, 12.2 µM; in the assay with T-47D breast, 0.785 µM. In addition, the TGI in the assay on ACHN renal was determined as 28.5 µM; in the assay with KM12 colon, 25.9 µM; in the assay on SNB-75 CNS, 19.1 µM; in the assay on HT29 colon, 24.3 µM; in the assay on EKVX NSCLC, 22 µM; with U251 CNS it was 29.8 µM. Moreover, the TGI in the assay on UO-31 renal came to 18 µM; in the assay with COLO 205 colon, 37.3 µM; in the assay on SK-MEL-28 melanoma it was 25.4 µM; in the assay on T-47D breast it was 27.2 µM.

`CN(C)CCCC1(c2ccc(F)cc2)OCc2cc(-c3cc4ccccc4s3)ccc21` (stereo unspecified): the GI50 is 1.66 µM in the assay on ACHN renal; 1.74 µM with KM12 colon; 1.24 µM with SNB-75 CNS; 1.67 µM in the assay with HT29 colon; 1.66 µM in the assay with EKVX NSCLC; 1.63 µM with U251 CNS. The GI50 in the assay on UO-31 renal was 1.24 µM; in the assay with COLO 205 colon, 1.34 µM; in the assay on SK-MEL-28 melanoma it was 1.81 µM; in the assay on T-47D breast, 2.04 µM. Further, the TGI was found to be 3.02 µM in the assay on ACHN renal; 3.45 µM in the assay with KM12 colon; 2.58 µM with SNB-75 CNS; 3.11 µM in the assay on HT29 colon; 3.07 µM in the assay with EKVX NSCLC; 3.02 µM with U251 CNS. For the same compound, the TGI in the assay on UO-31 renal is 2.49 µM; with COLO 205 colon, 2.74 µM; in the assay with SK-MEL-28 melanoma, 3.22 µM; in the assay on T-47D breast, 3.75 µM.

In the case of `Clc1ccc2nc(CI)c(CI)nc2c1`, the GI50 was 1.83 µM in the assay on ACHN renal; 6.07 µM in the assay with KM12 colon; 8.87 µM in the assay with SNB-75 CNS; 3.74 µM in the assay on HT29 colon; 13.6 µM with EKVX NSCLC; 2.71 µM in the assay on U251 CNS. The GI50 in the assay with UO-31 renal was 1.72 µM; with COLO 205 colon it was 1.77 µM; with SK-MEL-28 melanoma it was 14.4 µM; in the assay with T-47D breast it was 2.6 µM. For the same compound, the TGI turned out to be 3.4 µM with ACHN renal; 17.6 µM in the assay on KM12 colon; 23.2 µM with SNB-75 CNS; 19.6 µM in the assay with HT29 colon; 40.9 µM in the assay on EKVX NSCLC; 7.23 µM in the assay with U251 CNS. The TGI in the assay on UO-31 renal came to 3.5 µM; in the assay with COLO 205 colon, 3.28 µM; in the assay on SK-MEL-28 melanoma it was 27.7 µM; in the assay on T-47D breast it was 8.28 µM.

Consider `CC1(C)C2CCC1C(=O)[C@@]1(C=CC(=O)CC1)C2` (stereo partly specified), for which the TGI in the assay on ACHN renal, in the assay with KM12 colon, in the assay on SNB-75 CNS, with HT29 colon, in the assay with EKVX NSCLC and in the assay on U251 CNS was > 100 µM in each case. The TGI in the assay on UO-31 renal, with COLO 205 colon, with SK-MEL-28 melanoma and with T-47D breast was > 100 µM each time.

These data come from PubChem BioAssay (NCI).
